Test results published in patent publication US20080279897A1, “Method of Treating Cellular Damage” (MEDVET SCIENCE PTY. LTD., priority 2005, published 2008).
“Also recorded” adds a separate entry of the source.

Assays:
sphingosine kinase = assay: Sphingosine kinase activity in vitro (vascular endothelial cells); type: cell-based
[1] = Glycemic control in STZ-induced diabetic rats; type: in vivo, rat; conditions: insulin pump, within several hours
Experimental: Male Sprague-Dawley rats weighing 270-290 g were housed in a room under controlled temperature conditions (22° C.) and 12/12-hr of light/dark cycles. Diabetes was induced with 80 mg/kg streptozotocin (STZ) (Sigma-Aldrich) dissolved in citrate buffer (20 mM, pH 4.5) that was administered as a single intraperitoneal injection. Control rats were injected with an equivalent volume of the vehicle only. After injection (24 h), diabetes was diagnosed by the development of hyperglycaemia (>14 mmol/L blood glucose). One-half of the diabetic rats were randomly selected to receive insulin treatment (Linplant, one implant/200 g body wt; LinShin, Canada). […] […] All experiments were conducted in accordance with the PC-2 procedure of Institute of Medical and Veterinary Science (IMVS) and approved by the IMVS Animal Ethics Committee.

SphK = SphK activity in aorta and heart of STZ-induced diabetic rats; type: in vivo, rat; conditions: STZ-induced diabetic rats treated with insulin, 2 wk post-onset of diabetes
Experimental: Male Sprague-Dawley rats weighing 270-290 g were housed in a room under controlled temperature conditions (22° C.) and 12/12-hr of light/dark cycles. Diabetes was induced with 80 mg/kg streptozotocin (STZ) (Sigma-Aldrich) dissolved in citrate buffer (20 mM, pH 4.5) that was administered as a single intraperitoneal injection. Control rats were injected with an equivalent volume of the vehicle only. After injection (24 h), diabetes was diagnosed by the development of hyperglycaemia (>14 mmol/L blood glucose). One-half of the diabetic rats were randomly selected to receive insulin treatment (Linplant, one implant/200 g body wt; LinShin, Canada). Blood glucose levels were monitored every 4 days using Glucostix reagent strips (Boehringer Mannheim, Indianapolis, Ind.). Two weeks after the onset of diabetes, rats were killed for the study. […]
As described previously (Xia et al., 1999, J. Biol. Chem. 274:34499-34505), SphK activity was routinely determined using D-erythro-sphingosine (Biomol, Plymouth Meeting, Pa.) and [γ^32P]ATP (Geneworks, Adelaide, Australia) as substrates, and defined as picomoles of S1P formed per min per mg protein. The formation of S1P in vivo was measured in the permeabilized cells as previously described (Xia et al., 1998, Proc. Natl. Acad. Sci. U.S.A 95:14196-14201).

**Q.** Which “inhibitory effect on sphingosine kinase activity in vitro” value (sphingosine kinase) does the source give for insulin here?
**A.** The value was “no inhibitory effect”.

**Q.** What about the glycemic control [1] of the same substance?
**A.** Its glycemic control is “near euglycemia”.

**Q.** What about the “SphK activity in aorta of diabetic rats” value (SphK) of the same substance?
**A.** The value was “significant reduction; also recorded: completely prevented”.

**Q.** What about the “SphK activity in heart of diabetic rats” value (SphK) of the same substance?
**A.** The value was “significant reduction; also recorded: completely prevented”.
